Results on 3 compounds are retold here after PubChem BioAssay AID1017 (Sanford-Burnham Center for Chemical Genomics, 2008).

Where “and” joins values, the source holds several entries; their conditions need not be identical. Identical values can stand only once.

In general, IC50 refers to the midpoint of a concentration-inhibition curve.

The assay deals with Intestinal-type alkaline phosphatase (Homo sapiens) (UniProt P09923). In words: inhibition of intestinal alkaline phosphatase – biochemical, luminescence, dose response (AID 1017). As to conditions: purified human IAP, luminescent substrate.
Sequence of Intestinal-type alkaline phosphatase (Homo sapiens) (P09923 whole entry, looked up): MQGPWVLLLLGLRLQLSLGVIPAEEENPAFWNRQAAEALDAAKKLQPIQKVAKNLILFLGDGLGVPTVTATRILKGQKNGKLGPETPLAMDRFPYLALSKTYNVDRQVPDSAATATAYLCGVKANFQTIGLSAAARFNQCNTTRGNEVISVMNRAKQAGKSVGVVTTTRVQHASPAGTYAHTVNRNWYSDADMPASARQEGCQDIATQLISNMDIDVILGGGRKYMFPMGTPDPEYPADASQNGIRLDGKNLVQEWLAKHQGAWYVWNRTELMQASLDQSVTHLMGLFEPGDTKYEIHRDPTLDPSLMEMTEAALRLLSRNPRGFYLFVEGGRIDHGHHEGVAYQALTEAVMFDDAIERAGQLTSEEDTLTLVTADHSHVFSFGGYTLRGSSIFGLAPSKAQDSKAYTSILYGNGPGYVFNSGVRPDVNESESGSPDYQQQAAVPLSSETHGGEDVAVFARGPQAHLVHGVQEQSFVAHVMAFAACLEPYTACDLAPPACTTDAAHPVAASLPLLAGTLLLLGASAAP

Turning to `O=C1C2CC=CCC2C(=O)N1c1n[nH]c(-c2ccccc2)n1` (stereo not drawn), the IC50 was 110 nM and 157 nM.

As to `Oc1ccc(CCN=Cc2c(O)[nH]c3ccccc23)cc1O`, the IC50 is 9950 nM.

With `O=C1C2CC=CCC2C(=O)N1c1n[nH]c(Cc2ccccc2)n1` (stereo not drawn), the IC50 was 539 nM and 922 nM.
